From patent publication US6159979A, “Bicyclic aryl or a bicyclic heterocyclic ring containing compounds having a combined 5HT1A, 5HT1B and 5HT1D receptor antagonistic activity” (SmithKline Beecham p.l.c., priority 1997, dated 2000)

What was measured:
[1] = molecular target: T1, 5-HT1A receptors (Homo sapiens, UniProt P08908); assay: 5-HT1A receptor binding ([3H]-8-OH DPAT, HEK 293 cell homogenate); conditions: HEK 293 cells expressing 5-HT1A receptors; [3H]-8-OH DPAT (1nM); pH 7.7, 37° C., 45 minutes; read-out: pKi values at 5-HT1A (converted)
T1 construct: expressed in transfected cells; host or cells: HEK 293
T1 sequence (P08908 1-422): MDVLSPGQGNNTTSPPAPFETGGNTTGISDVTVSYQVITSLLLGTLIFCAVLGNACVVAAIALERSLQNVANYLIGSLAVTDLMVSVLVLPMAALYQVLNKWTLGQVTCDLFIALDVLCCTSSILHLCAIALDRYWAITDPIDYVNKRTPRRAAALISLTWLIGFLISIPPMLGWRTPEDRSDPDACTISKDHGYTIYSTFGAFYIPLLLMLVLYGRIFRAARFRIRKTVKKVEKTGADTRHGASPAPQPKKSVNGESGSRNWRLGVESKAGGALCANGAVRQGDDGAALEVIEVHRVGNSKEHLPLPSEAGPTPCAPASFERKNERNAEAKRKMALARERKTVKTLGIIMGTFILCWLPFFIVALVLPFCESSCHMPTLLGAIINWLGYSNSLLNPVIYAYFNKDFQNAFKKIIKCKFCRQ
Experimental: (§1) 5-HT1A, 5-HT1B and 5-HT1D Receptor Binding
(§2) HEK 293 cells expressing 5-HT1A receptors (4×10^7 /ml) were homogenised in Tris buffer and stored in 1 ml aliquots. CHO cells expressing 5-HT1B receptors (4×10^7 cells/ml) were homogenised in Tris buffer and stored in 1.5 ml aliquots. CHO cells expressing 5-HT1D receptors (0.563×10^8 /ml) were homogenised in Tris buffer and stored in 1 ml aliquots.
(§3) 0.4 ml of a cell suspension was incubated with [^3 H]-5-HT (4nM) for 5-HT1B/1D receptors and [^3 H]-8-OH DPAT (1nM) for 5-HT1A receptors in Tris Mg HCl buffer (pH 7.7) and test drug, at 37° C. for 45 minutes. Each test drug was tested at 10 concentrations (0.01 mM to 0.3 nM final concentration), with non-specific binding defined using 0.01 mM 5-HT. The total assay volume was 0.5 ml. Incubation was stopped by rapid filtration using a Packard Filtermate (filters pre-soaked in 0.3% polyethylenimine) and radioactivity measured by Topcount scintillation counting. pKi values were calculated from the IC50 generated by an iterative least squares curve fitting programme.

[2] = molecular target: T2, 5-HT1B receptors (Homo sapiens, UniProt P28222); assay: 5-HT1B receptor binding ([3H]-5-HT, CHO cell homogenate); conditions: CHO cells expressing 5-HT1B receptors; [3H]-5-HT (4nM); pH 7.7, 37° C., 45 minutes; read-out: pKi values at 5-HT1B (converted)
T2 construct: expressed in transfected cells; host or cells: CHO
Experimental: as §1, §2, §3

[3] = molecular target: T3, 5-HT1D receptors (Homo sapiens, UniProt P28221); assay: 5-HT1D receptor binding ([3H]-5-HT, CHO cell homogenate); conditions: CHO cells expressing 5-HT1D receptors; [3H]-5-HT (4nM); pH 7.7, 37° C., 45 minutes; read-out: pKi values at 5-HT1D (converted)
T3 construct: expressed in transfected cells; host or cells: CHO
Experimental: as §1, §2, §3

Measured: Ki

T2 sequence (P28222 whole entry): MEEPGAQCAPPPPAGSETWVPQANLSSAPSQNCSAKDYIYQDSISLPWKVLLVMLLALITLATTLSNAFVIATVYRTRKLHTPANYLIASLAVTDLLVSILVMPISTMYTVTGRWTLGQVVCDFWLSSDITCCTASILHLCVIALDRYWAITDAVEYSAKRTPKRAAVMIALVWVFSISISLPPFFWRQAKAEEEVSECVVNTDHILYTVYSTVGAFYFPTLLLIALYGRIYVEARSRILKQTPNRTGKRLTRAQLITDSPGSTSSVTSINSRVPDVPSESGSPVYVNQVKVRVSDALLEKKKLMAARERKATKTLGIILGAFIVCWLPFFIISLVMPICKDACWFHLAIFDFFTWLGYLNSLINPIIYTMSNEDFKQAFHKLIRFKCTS
T3 sequence (P28221 whole entry): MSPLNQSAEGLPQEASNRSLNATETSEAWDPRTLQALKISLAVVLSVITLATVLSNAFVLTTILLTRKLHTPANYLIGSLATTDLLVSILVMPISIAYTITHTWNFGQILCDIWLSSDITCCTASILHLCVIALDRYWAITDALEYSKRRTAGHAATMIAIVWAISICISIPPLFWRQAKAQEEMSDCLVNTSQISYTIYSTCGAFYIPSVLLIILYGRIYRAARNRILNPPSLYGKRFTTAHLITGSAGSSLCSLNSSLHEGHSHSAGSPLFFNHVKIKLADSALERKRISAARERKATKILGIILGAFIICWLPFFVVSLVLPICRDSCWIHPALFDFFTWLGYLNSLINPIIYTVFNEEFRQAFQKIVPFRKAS

COc1ccc(NC(=O)Nc2cccc3c(-c4cccc(C(C)=O)c4)cccc23)cc1N1CCN(C)CC1 [Example 40, N-[5-(3-Acetylphenyl)naphth-1-yl]-N'-[4-methoxy-3-(4-methylpiperazin-1-yl)phenyl]urea]
< 10 nM: all assays above

CN1CCN(c2cc(NC(=O)Cc3ccc(-c4ccncc4)c4ccccc34)ccc2Br)CC1 [Example 38, N-[4-Bromo-3-(4-methylpiperazin-1-yl)phenyl]-4-(pyridin-4-yl)naphth-1-ylacetamide]
< 10 nM: all assays above

COc1ccc(NC(=O)Cc2ccc(-c3ccncc3)c3ccccc23)cc1N1CCN(C)CC1 [Example 10, N-[4-Methoxy-3-(4-methylpiperazin-1-yl)phenyl]-4-(pyridin-4-yl)naphth-1-ylacetamide]
< 10 nM: all assays above

COc1ccc(NC(=O)Nc2cccc3c(-c4ccccc4)cccc23)cc1N1CCN(C)CC1 [Example 33, N-[4-Methoxy-3-(4-methylpiperazin-1-yl)phenyl]-N'-[5-phenylnaphth-1-yl]urea]
< 10 nM: all assays above

CN1CCN(c2cc(NC(=O)Nc3ccc(-c4ccncc4)c4ccccc34)ccc2Cl)CC1 [Example 11, N-[4-Chloro-3-(4-methylpiperazin-1-yl)phenyl]-N'-[4-(pyridin-4-yl)naphth-1-yl]urea]
< 10 nM: all assays above

COc1ccc(NC(=O)Cc2ccc(-c3cccnc3)c3ccccc23)cc1N1CCN(C)CC1 [Example 28, N-[4-Methoxy-3-(4-methylpiperazin-1-yl)phenyl]-4-(pyridin-3-yl)naphth-1-ylacetamide]
< 10 nM: all assays above
